Literature values, collected in patent US20180318338A1, “METHODS AND COMPOSITIONS FOR THE PREVENTION OF SUICIDE, HOMICIDE AND SELF-HARMING BEHAVIORS” (THE MCLEAN HOSPITAL CORPORATION, priority 2015, published 2018).

Settings: in vivo

In the case of `[Xe]` [xenon], the “blood level of xenon” value is given as 100 to 200 nL xenon/mL blood.
